The results in this text go back to PMC6222857, “Synthesis and Preliminary Evaluation of Biological Activity of Glycoconjugates Analogues of Acyclic Uridine Derivatives” (Molecules : A Journal of Synthetic Chemistry and Natural …, 2018).

The target of the assay is T1, β-1,4-galactosyltransferase I (β4GalT) from bovine milk (Bos taurus, UniProt P08037).
T1 construct: gene B4GALT1
T1 sequence (P08037 1-402): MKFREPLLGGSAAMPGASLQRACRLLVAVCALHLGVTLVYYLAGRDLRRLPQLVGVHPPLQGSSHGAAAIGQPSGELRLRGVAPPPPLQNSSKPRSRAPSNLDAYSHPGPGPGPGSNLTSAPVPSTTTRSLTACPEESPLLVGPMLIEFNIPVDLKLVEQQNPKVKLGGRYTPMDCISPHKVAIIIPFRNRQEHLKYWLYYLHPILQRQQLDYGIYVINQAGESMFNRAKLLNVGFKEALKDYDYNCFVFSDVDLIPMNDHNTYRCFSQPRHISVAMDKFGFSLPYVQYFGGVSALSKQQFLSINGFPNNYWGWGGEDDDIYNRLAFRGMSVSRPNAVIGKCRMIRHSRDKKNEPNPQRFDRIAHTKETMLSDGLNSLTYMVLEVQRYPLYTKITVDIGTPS
As to the kind of experiment: RP-HPLC enzymatic assay with fluorescence detection: galactose transfer from UDP-Gal to esculine. The assay is classed as biochemical.

Each structure is given as a SMILES string.

For `O=C(CCOCn1ccc(=O)[nH]c1=O)Nc1ccc(S[C@@H]2O[C@H](CO)[C@@H](O)[C@H](O)[C@H]2O)nc1` [compound 64, Glycoconjugate 64], the midpoint of inhibition, the IC50, lay at 710 µM.
